Source: the supplement of paper PMC10307832

Legend:
Test in all cases: relative viability (nuclei count vs DMSO), 5 days (fraction); higher = more cells survive
[1] = tested on: NCI-H1792
Method in brief: (§1)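 One day after seeding in 1536-well plates, lung cancer cell lines were dosed by pin tool. Dosing was either single-drug or a fixed anchor-drug dose plus five library-drug doses (not always all listed) in √10 steps. After 5 days, nuclei were stained in one fix-and-stain step and counted on 4× images, and relative viability is the nuclei count of treated wells over that of vehicle wells, given as the median of duplicate plates.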

[2] = tested on: NCI-H460
Method in brief: as §1

[3] = tested on: HCC-78
Method in brief: as §1

[4] = tested on: LU99A
Method in brief: as §1

[5] = tested on: SK-LU-1
Method in brief: as §1

[6] = tested on: NCI-H1666
Method in brief: as §1

[7] = tested on: LXF-289
Method in brief: as §1

[8] = tested on: HCC-366
Method in brief: as §1

[9] = tested on: NCI-H2009
Method in brief: as §1

[10] = tested on: NCI-H1915
Method in brief: as §1

[11] = tested on: UMC-11
Method in brief: as §1

[12] = tested on: A-427
Method in brief: as §1

[13] = tested on: LC-2-ad
Method in brief: as §1

[14] = tested on: NCI-H358
Method in brief: as §1

[15] = tested on: SW 900
Method in brief: as §1

[16] = tested on: NCI-H2170
Method in brief: as §1

[17] = tested on: COR-L 105
Method in brief: as §1

[18] = tested on: HOP-62
Method in brief: as §1

[19] = tested on: NCI-H1793
Method in brief: as §1

[20] = tested on: NCI-H1944
Method in brief: as §1

[21] = tested on: EPLC-272H
Method in brief: as §1

[22] = tested on: NCI-H2085
Method in brief: as §1

COc1cc2nccc(Oc3ccc(NC(=O)Nc4cc(C)on4)c(Cl)c3)c2cc1OC [Tivozanib] + N=C(N)NC(=N)NCCc1ccccc1 [Phenformin] (partner 250 µM)
relative viability ([1]; first compound 0.005 µM): 0.316
relative viability ([1]; first compound 0.01581 µM): 0.394
relative viability ([1]; first compound 0.05 µM): 0.361
relative viability ([1]; first compound 0.5 µM): 0.388
relative viability ([2]; first compound 0.005 µM): 0.491
relative viability ([2]; first compound 0.01581 µM): 0.537
relative viability ([2]; first compound 0.05 µM): 0.509
relative viability ([2]; first compound 0.1581 µM): 0.547
relative viability ([2]; first compound 0.5 µM): 0.503
relative viability ([3]; first compound 0.005 µM): 0.619
relative viability ([3]; first compound 0.01581 µM): 0.658
relative viability ([3]; first compound 0.05 µM): 0.85
relative viability ([3]; first compound 0.1581 µM): 0.529
relative viability ([3]; first compound 0.5 µM): 0.655
relative viability ([4]; first compound 0.005 µM): 0.79
relative viability ([4]; first compound 0.01581 µM): 0.768
relative viability ([4]; first compound 0.05 µM): 0.879
relative viability ([4]; first compound 0.1581 µM): 0.769
relative viability ([4]; first compound 0.5 µM): 0.755
relative viability ([5]; first compound 0.005 µM): 0.58
relative viability ([5]; first compound 0.01581 µM): 0.549
relative viability ([5]; first compound 0.05 µM): 0.629
relative viability ([5]; first compound 0.1581 µM): 0.376
relative viability ([5]; first compound 0.5 µM): 0.532
relative viability ([6]; first compound 0.005 µM): 0.507
relative viability ([6]; first compound 0.01581 µM): 0.553
relative viability ([6]; first compound 0.05 µM): 0.579
relative viability ([6]; first compound 0.1581 µM): 0.569
relative viability ([6]; first compound 0.5 µM): 0.582
relative viability ([7]; first compound 0.005 µM): 0.532
relative viability ([7]; first compound 0.01581 µM): 0.506
relative viability ([7]; first compound 0.05 µM): 0.514
relative viability ([7]; first compound 0.1581 µM): 0.561
relative viability ([7]; first compound 0.5 µM): 0.418
relative viability ([8]; first compound 0.005 µM): 0.615
relative viability ([8]; first compound 0.01581 µM): 0.588
relative viability ([8]; first compound 0.05 µM): 0.632
relative viability ([8]; first compound 0.1581 µM): 0.643
relative viability ([8]; first compound 0.5 µM): 0.611
relative viability ([9]; first compound 0.005 µM): 0.448
relative viability ([9]; first compound 0.01581 µM): 0.473
relative viability ([9]; first compound 0.05 µM): 0.453
relative viability ([9]; first compound 0.1581 µM): 0.478
relative viability ([9]; first compound 0.5 µM): 0.344
relative viability ([10]; first compound 0.005 µM): 0.365
relative viability ([10]; first compound 0.01581 µM): 0.388
relative viability ([10]; first compound 0.05 µM): 0.317
relative viability ([10]; first compound 0.1581 µM): 0.373
relative viability ([10]; first compound 0.5 µM): 0.309
relative viability ([11]; first compound 0.005 µM): 0.324
relative viability ([11]; first compound 0.01581 µM): 0.332
relative viability ([11]; first compound 0.05 µM): 0.329
relative viability ([11]; first compound 0.5 µM): 0.25
relative viability ([12]; first compound 0.005 µM): 0.337
relative viability ([12]; first compound 0.01581 µM): 0.308
relative viability ([12]; first compound 0.05 µM): 0.363
relative viability ([12]; first compound 0.1581 µM): 0.315
relative viability ([12]; first compound 0.5 µM): 0.241
relative viability ([13]; first compound 0.005 µM): 0.593
relative viability ([13]; first compound 0.01581 µM): 0.548
relative viability ([13]; first compound 0.05 µM): 0.579
relative viability ([13]; first compound 0.1581 µM): 0.514
relative viability ([13]; first compound 0.5 µM): 0.387
relative viability ([14]; first compound 0.005 µM): 0.306
relative viability ([14]; first compound 0.01581 µM): 0.265
relative viability ([14]; first compound 0.05 µM): 0.411
relative viability ([14]; first compound 0.1581 µM): 0.301
relative viability ([14]; first compound 0.5 µM): 0.447
relative viability ([15]; first compound 0.005 µM): 0.554
relative viability ([15]; first compound 0.01581 µM): 0.71
relative viability ([15]; first compound 0.05 µM): 0.731
relative viability ([15]; first compound 0.1581 µM): 0.492
relative viability ([15]; first compound 0.5 µM): 0.524
relative viability ([16]; first compound 0.005 µM): 0.413
relative viability ([16]; first compound 0.01581 µM): 0.42
relative viability ([16]; first compound 0.05 µM): 0.395
relative viability ([16]; first compound 0.1581 µM): 0.424
relative viability ([16]; first compound 0.5 µM): 0.421
relative viability ([17]; first compound 0.005 µM): 0.49
relative viability ([17]; first compound 0.01581 µM): 0.482
relative viability ([17]; first compound 0.05 µM): 0.558
relative viability ([17]; first compound 0.1581 µM): 0.501
relative viability ([17]; first compound 0.5 µM): 0.43
relative viability ([18]; first compound 0.005 µM): 0.611
relative viability ([18]; first compound 0.01581 µM): 0.626
relative viability ([18]; first compound 0.05 µM): 0.66
relative viability ([18]; first compound 0.1581 µM): 0.704
relative viability ([18]; first compound 0.5 µM): 0.714
relative viability ([19]; first compound 0.005 µM): 0.35
relative viability ([19]; first compound 0.01581 µM): 0.352
relative viability ([19]; first compound 0.05 µM): 0.419
relative viability ([19]; first compound 0.1581 µM): 0.309
relative viability ([19]; first compound 0.5 µM): 0.335
relative viability ([20]; first compound 0.005 µM): 0.189
relative viability ([20]; first compound 0.01581 µM): 0.202
relative viability ([20]; first compound 0.05 µM): 0.208
relative viability ([20]; first compound 0.1581 µM): 0.21
relative viability ([20]; first compound 0.5 µM): 0.188
relative viability ([21]; first compound 0.005 µM): 0.271
relative viability ([21]; first compound 0.01581 µM): 0.355
relative viability ([21]; first compound 0.05 µM): 0.359
relative viability ([21]; first compound 0.1581 µM): 0.314
relative viability ([21]; first compound 0.5 µM): 0.239
relative viability ([22]; first compound 0.005 µM): 0.652
relative viability ([22]; first compound 0.01581 µM): 0.723
relative viability ([22]; first compound 0.05 µM): 0.711
relative viability ([22]; first compound 0.1581 µM): 0.62
relative viability ([22]; first compound 0.5 µM): 0.673
